Assay results from patent US7763626B2, “Compositions and method for enhancing the therapeutic activity of opiods in treatment of pain” (Trustees of Dartmouth College, priority 2004, dated 2010).

How the values were obtained:
Type in all cases: in vivo, rat
GLAST = test: Immunohistochemical assessment of glutamate transporters in spinal cord; conditions: day 12 after L5 spinal nerve transection; propentofylline 10 μg i.t. daily
Procedure: (§1) Experiments were performed to determine how propentofylline-induced suppression of glial activation contribute to reduced behavioral hypersensitivity after nerve injury. In a preventative paradigm, 10 μg of propentofylline (Sigma) to male Sprague-Dawley rats in 40 μl of sterile saline, or saline vehicle alone was administered intrathecally (i.t.) by lumbar puncture at the L4/5 level under brief halothane anesthesia (n=6-8/group). Treatment began one hour prior to L5 spinal nerve transection and continued daily in the evening until day 4 or 12 post-transection. Rats received either an L5 spinal nerve transection or sham surgery on day 0. The development of mechanical allodynia was monitored as described above in the morning at approximately 15 hours post-propentofylline or saline injection. […]
(§2) For assessment of GFAP, GLT-1 and GLAST immunoreactivity, a separate group of animals (n=4/treatment) were anesthetized and transcardially perfused with 0.1 M PBS (phosphate-buffered saline), pH 7.4, followed by 4% paraformaldehyde in PBS on day 12 post-L5 spinal nerve transection. […] The sections were examined with an Olympus fluorescence microscope, and images were captured with a Q-Fire cooled camera. […]

GLT-1 = test: as above; conditions: twelve days after L5 spinal nerve transection; propentofylline 10 μg i.t. daily
Procedure: as §1, §2

IL-1β mRNA = test: RNase protection assay, cytokine mRNA at L5 lumbar spinal cord; conditions: propentofylline 10 micrograms intrathecally for 5 days during induction of morphine tolerance
Procedure: (§3) After behavioral testing for reactions to the combined treatment, rats were sacrificed and decapitated. An 18-gauge needle was inserted into the caudal end of the vertebral column and the spinal cord was expelled with ice-cold phosphate-buffered saline. The spinal cord was frozen immediately on dry ice and stored at −80° C. until homogenization. The L5 lumbar spinal cord was isolated from the intact frozen cord at the time of mRNA and protein quantification. Total RNA was isolated from the L5 spinal cord by the TRIzol extraction method (Invitrogen Corporation, Carlsbad, Calif).
(§4) Assessment of the temporal cytokine mRNA expression in the L5 lumber spinal cord was performed using a Ribonuclease Protection Assay technique. A Multiprobe RPAse kit was used (Pharmingen, San Diego, Calif.). Total RNA (15 μg) was hybridized to ^32P-labeled antisense RNA probes transcribed using the rat cytokine-1 (rCK-1) multiprobe template set resulting in double-stranded target RNA. After Rnase digestion, protected RNA and probe were resolved on a denaturing polyacrylamide gel and visualized by overnight autoradiography. Quantitative image analysis was employed to compare mRNA levels based on band intensities for each cytokine. The intensity of each band was measured using image analysis software and assigned an arbitrary unit based on the measured intensity levels. The value for the normalized quantity for each band was obtained by dividing by the L32 house-keeping gene control. Individual mRNA concentration was calculated as the ratio of the expression compared with saline-treated animals in which normal values were weighted as 1.

IL-6 mRNA = test: as above; conditions: propentofylline 10 micrograms intrathecally for 5 days during induction of morphine tolerance
Procedure: as §3, §4

Mac-1 mRNA = test: Real-time PCR of Mac-1 mRNA at L5 lumbar spinal cord
Procedure: Total RNA was treated with DNase I (Ambion, Austin, Tex.) to remove DNA contamination before cDNA synthesis. The reverse transcription (RT) was carried out in a 100 μl total reaction volume containing RT buffer, dNTPs, multiscribe reverse transcriptase, RNase-free water and 10 μg of DNase-treated total RNA. The RT reaction was carried out at 25° C. for 10 minutes, 37° C. for 120 minutes, and 95° C. for 5 minutes. Real-time PCR analysis was performed using gene-specific primers and probes that were designed and blasted against GENBANK to confirm their species and gene specificity. […] The real-time PCR reactions were carried out using Platinum Taq DNA polymerase, 20 mM Tris HCl (pH 8.4), 50 mM KCl, 3 mM MgCl2, 200 μM dGTP, dCTP, and dATP, 400 μM of dUTP and 1 U uracyl DNA glycosylase (UDG), 900 nM forward and reverse primers, 300 nM TaqMan probe, and 10-fold dilution of cDNA (50 ng) from the RT step. Primers and probes for glyceraldehyde-3-phosphate (GADPH), GFAP and Mac-1 were obtained form Applied Biosystems (LaJolla, Calif.). The relative standard curves generated by plotting the threshold value versus the log of the amount of total cDNA added to the reaction (1-10000 pg) were used to compare the relative amount of target genes from control and chronic morphine-treated animals.

Male Sprague-Dawley rats = test: Paw pressure test (Analgesy-Meter), morphine withdrawal-induced mechanical hyperalgesia
Procedure: Male Sprague-Dawley rats (175-200 grams, Harlan, Indianapolis, Ind.) were divided into two groups (n=8 per group). Rats received subcutaneous injections of either saline or morphine (10 mg/kg; Sigma, St. Louis, Mo.) twice daily at 0800 to 0900 and 1600-1700 hour for 5 days in order to induce opioid tolerance. Chronic morphine withdrawal-induced hyperalgesia and allodynia were assessed in the animals 16 hours after the last injection of morphine. Following the recording of morphine withdrawal-induced hyperalgesia and allodynia, animals were treated with morphine (5 microgram) acutely via lumbar intrathecal injection to study the expression of morphine tolerance. Acute analgesic activity or intrathecal morphine in morphine-tolerant and chronic aline-treated rats were evaluated by mechanical (Analgesy-Meter) and thermal (tail-flick) test paradigms. Behaviors recorded prior to the acute administration of intrathecal morphine served as the basal latency measures.
With an understanding of the effects of morphine alone, separate groups of rats (n=8) received with saline or morphine (10 mg/kg subcutaneously, twice daily for 5 days) and also received once daily injections (at 1100 to 1200 hour) of propentofylline (1 and 10 micrograms) or saline via direct lumbar puncture during the induction of morphine tolerance. Again, chronic morphine withdrawal-induced hyperalgesia and allodynia were assessed in the animals 16 hours after the last subcutaneous morphine injection. Following the recording of morphine withdrawal-induced hyperalgesia and allodynia, animals were treated with morphine (5 micrograms) acutely via lumbar puncture to study the expression of morphine tolerance. As before, the acute analgesic activity of intrathecal morphine in morphine-tolerant and saline-injected rats was evaluated by mechanical (Analgesy-Meter) and thermal (tail-flick) test paradigms. Behavior recorded prior to the acute administration of intrathecal morphine served as the basal latency.
In blinded testing, rats were subjected to sequential series of 10 tactile stimulations to the dorsal surface of the ipsilateral hindpaw using […] von Frey filaments (Stoelting Co., WoodDale, Ill.) sequentially. The number of foot withdrawals to this normally non-noxious stimulus determined mechanical allodynia. Mechanical sensitivity was assessed by recording the total number of responses elicited during three successive trials separated by at least 10 minutes. The pressure required to elicit paw withdrawal, the paw pressure threshold was determined.

CCCn1cnc2c1c(=O)n(CCCCC(C)=O)c(=O)n2C [propentofylline]
GLAST immunoreactivity on the ipsilateral side (GLAST): did not enhance
GLT-1 immunoreactivity, ipsilateral versus contralateral dorsal horns (GLT-1): no qualitative difference
morphine-induced mRNA upregulation for IL-1β (IL-1β mRNA): significantly attenuated
morphine-induced mRNA upregulation for IL-6 (IL-6 mRNA): significantly attenuated
Mac-1 mRNA levels at the L5 lumbar spinal cord (Mac-1 mRNA; compared to saline-treated controls, morphine 10 mg/kg twice daily 5 days, or propentofylline 10 micrograms intrathecally 5 days in saline-treated rats): no effect
chronic morphine-induced upregulation of Mac-1 (Mac-1 mRNA; propentofylline during the induction phase of morphine tolerance): significantly attenuated
Paw pressure latency (Male Sprague-Dawley rats; 16 hours after last injection, morphine 10 mg/kg s.c. twice daily 5 days and/or propentofylline 10 micrograms intrathecally once daily 5 days): 119.4 ± 5.4 grams
morphine withdrawal-induced mechanical hyperalgesia (Male Sprague-Dawley rats; 16 hours after last morphine injection (10 mg/kg s.c. twice daily 5 days), propentofylline 1 and 10 micrograms intrathecally for 5 days during induction of tolerance): significantly attenuated
